Source: patent publication US20260184675A1, “CHIRAL ISOMERIC SULFITE COMPOUND AND APPLICATION THEREOF” (Chengdu Hanova BioSciences Co., Ltd, priority 2024, published 2026)

How the values were obtained:
eggs of Thrips = experiment: Effect on hatching of eggs of Thrips, leaf disc method; assay type: in vivo; details: 100 ppm; for Hatching rate (%): 5 days after insecticide delivery
Method: (§1) • (1) Preparation of leaf discs containing eggs: 20 female adult mites of Tetranychus cinnabarinus were transferred onto leaf discs of Vicia faba with a diameter of 2.0 cm (with wetted filter paper at the bottom), then covered it with a lidded culture dish and cultivated under moisturizing conditions, the adult mites were removed within 36 hours and microscopic examination and counting were performed on leaf discs containing eggs. • (2) Investigation of egg population base: Before pesticide soaking, a microscopic examination was conducted on the egg basic number of each leaf disc, with 2 replicates set for each treatment. • (3) Pesticide soaking treatment: The leaf butterflies loaded with mite eggs were soaked in clear water and sulfite compounds for 10 seconds, respectively, then taken out and cultivated under moisturizing conditions. Each treatment should be repeated for no less than 3 times. • (4) Cultivation and observation: The […] were cultivated under normal conditions. Five days after insecticide delivery, the hatching status of mite eggs was investigated. • Note: The temperature and humidity conditions of the constant temperature and humidity incubator after the treatment should be controlled so as to avoid excessive temperature differences, which may cause generation and dripping of condensate water in the culture dish, resulting in abnormal death of eggs due to soaking in water; it is also necessary to ensure sufficient strong ambient light, without directing irradiating the leaves. • (5) Survey of Results: The experimental materials of each treatment group were regularly hydrated and moisturized, and the hatching of eggs was observed. On the 7th day after insecticide delivery, the number of hatched eggs for each treatment was recorded, and the survey of results was recorded in the original notebook. According to the experimental requirements and characteristics of agents, the survey time can be shortened or extended.
(§2) • 1) Surveying and recording the number of hatched eggs for each treatment. • 2) Photographing and recording whether there was any pesticide damage to the leaf discs of Vicia faba. • 3) Recording the developmental status of experimental mite eggs, behavior status of nymph mites, including abnormal phenomena such as delayed or stopped development of mite eggs, difficulty in breaking hull for nymph mites, or painful struggles after hatching, etc. • (6) Calculation method: Based on the survey data, the prevention and control effect of each treatment was calculated according to the following formula, and the calculation results were kept to two decimal places.
(§3) This test adopted the method in Test Example 1 of technical section, mainly used leaf disc method to explore the inhibitory effect on hatching of eggs of Thrips by 1-(S,S), 1-(S,R), 1-(R,R), 1-(R,S), 1′-(S,S), 1′-(S,R), 1′-(R,R), 1′-(R,S), compound 1, compound 1′, S-10, R-10, S-10′, R-10′, compound 10, compound 10′, compound 19-(S,S), 19-(S,R), 19-(R,R), 19-(R,S), 19′-(S,S), 19′-(S,R), 19′-(R,R), 19′-(R,S), compound 19, and compound 19′. The concentration of all compounds was 100 ppm.

[1] = tested on: eggs of Harmonia axyridis; experiment: Effect on hatching of eggs of Harmonia axyridis, egg card immersion; assay type: in vivo; details: 100 ppm; for Number of hatched larvae 4 days after insecticide delivery, Replicate 1 / Number of hatched larvae 4 days after insecticide delivery, Replicate 2 / Number of hatched larvae 4 days after insecticide delivery, Replicate 3: Harmonia axyridis egg cards, immersed 30 seconds; for Hatching rate (%), Replicate 1 / Hatching rate (%), Replicate 2 / Hatching rate (%), Replicate 3: Harmonia axyridis eggs, 4 days after delivery
Source text: The eggs of Harmonia axyridis cards (with approximately 20 eggs per card) were purchased from Henan Jiyuan Baiyun Industry Co., Ltd. in Henan Province. The number of eggs on the egg cards was counted as the basic number before insecticide delivery, and 5 cards were used as one treatment, with 3 replicates per treatment. After immersing the egg cards in a 100 ppm insecticide solution for 30 seconds, they were taken out and air dried, then cultivated under moisturizing conditions, and the […] were cultivated at 27° C. 4 days after insecticide delivery, the hatching status of eggs of Harmonia axyridis was investigated, and the prevention and control effect was calculated according to the following formula. [formula] [formula]

Magnaporthe grisea = assay type: cell-based; details: 100 ppm; for Average antifungal rate (%) / Antifungal rate of Magnaporthe grisea (%), Replicate 1 / Antifungal rate of Magnaporthe grisea (%), Replicate 2 / Antifungal rate of Magnaporthe grisea (%), Replicate 3: 96-well plate; for Average antifungal rate (%): average of 3 replicates
[2] = tested on: eggs of Tetranychus urticae; experiment: Effect on hatching of eggs of Tetranychus urticae, leaf disc method; assay type: in vivo; details: 5 ppm; for Hatching rate (%): 5 days after insecticide delivery
Method: as §1, §2
as §3, with “Tetranychus urticae” for “Thrips”, “by compounds” for “by”, “5” for “100”

eggs of Aleyrodidae = experiment: Effect on hatching of eggs of Aleyrodidae, leaf disc method; assay type: in vivo; details: 10 ppm; for Hatching rate (%), Replicate 1 / Hatching rate (%), Replicate 2 / Hatching rate (%), Replicate 3 / Number of hatched larvae 5 days after insecticide delivery, Replicate 1 / Number of hatched larvae 5 days after insecticide delivery, Replicate 2 / Number of hatched larvae 5 days after insecticide delivery, Replicate 3: Aleyrodidae eggs; for Hatching rate (%), Replicate 1 / Hatching rate (%), Replicate 2 / Hatching rate (%), Replicate 3: 5 days after delivery; for Number of hatched larvae 5 days after insecticide delivery, Replicate 1 / Number of hatched larvae 5 days after insecticide delivery, Replicate 2 / Number of hatched larvae 5 days after insecticide delivery, Replicate 3: leaf disc
Method: as §1, §2
as §3, with “Aleyrodidae” for “Thrips”, “by compounds” for “by”, “10” for “100”

[3] = Replicate 1, listed as 1′-(S, R)
[4] = Replicate 2, listed as 1′-(S, R)
[5] = Replicate 3, listed as 1′-(S, R)
[6] = Replicate 1, listed as 19-(R, R)
[7] = Replicate 2, listed as 19-(R, R)
[8] = Replicate 3, listed as 19-(R, R)

## CC(COc1ccc(Cl)cc1Cl)OS(=O)OCCF [1′-(S,R)]
Eggs of Thrips
  inhibitory activity on the hatching of eggs of Thrips (in words): strong inhibitory activities
Eggs of Thrips; [3]
  Hatching rate (%): 0.00%
  Number of hatched larvae 5 days after insecticide delivery: 0
Eggs of Thrips; [4]
  Hatching rate (%): 0.00%
  Number of hatched larvae 5 days after insecticide delivery: 0
Eggs of Thrips; [5]
  Hatching rate (%): 0.00%
  Number of hatched larvae 5 days after insecticide delivery: 0
[1]
  inhibitory activity on the hatching of eggs of Harmonia axyridis (in words): strong inhibitory activities
[1]; listed as 1′-(S, R)
  Number of hatched larvae 4 days after insecticide delivery, Replicate 1: 0
  Number of hatched larvae 4 days after insecticide delivery, Replicate 2: 0
  Number of hatched larvae 4 days after insecticide delivery, Replicate 3: 0
  Hatching rate (%), Replicate 1: 0.00%
  Hatching rate (%), Replicate 2: 0.00%
  Hatching rate (%), Replicate 3: 0.00%
Magnaporthe grisea
  inhibitory rate against Magnaporthe grisea (in words): strong inhibitory rate
  Average antifungal rate (%): 99.22%
  Antifungal rate of Magnaporthe grisea (%), Replicate 1: 95.80%
  Antifungal rate of Magnaporthe grisea (%), Replicate 2: 102.01%
  Antifungal rate of Magnaporthe grisea (%), Replicate 3: 99.85%
[2]
  inhibitory activity on the hatching of eggs of Tetranychus urticae (in words): strong inhibitory activities
[2]; [3]
  Hatching rate (%): 0.00%
  Number of hatched larvae 5 days after insecticide delivery: 0
[2]; [4]
  Hatching rate (%): 0.00%
  Number of hatched larvae 5 days after insecticide delivery: 0
Eggs of Aleyrodidae
  inhibitory activity on the hatching of eggs of Aleyrodidae (in words): strong inhibitory activities
Eggs of Aleyrodidae; listed as 1′-(S, R)
  Hatching rate (%), Replicate 1: 0.00%
  Hatching rate (%), Replicate 2: 0.00%
  Hatching rate (%), Replicate 3: 0.00%
  Number of hatched larvae 5 days after insecticide delivery, Replicate 1: 0
  Number of hatched larvae 5 days after insecticide delivery, Replicate 2: 0
  Number of hatched larvae 5 days after insecticide delivery, Replicate 3: 0

## CCC(COc1ccc(Cl)cc1Cl)OS(=O)OCCF [19-(R,R)]
Eggs of Thrips; [6]
  Hatching rate (%): 12.63%
  Number of hatched larvae 5 days after insecticide delivery: 12
Eggs of Thrips; [7]
  Hatching rate (%): 13.46%
  Number of hatched larvae 5 days after insecticide delivery: 14
Eggs of Thrips; [8]
  Hatching rate (%): 13.04%
  Number of hatched larvae 5 days after insecticide delivery: 15
[1]; listed as 19-(R, R)
  Number of hatched larvae 4 days after insecticide delivery, Replicate 1: 14
  Number of hatched larvae 4 days after insecticide delivery, Replicate 2: 15
  Number of hatched larvae 4 days after insecticide delivery, Replicate 3: 14
  Hatching rate (%), Replicate 1: 14.43%
  Hatching rate (%), Replicate 2: 14.42%
  Hatching rate (%), Replicate 3: 13.73%
Magnaporthe grisea
  inhibitory rate against Magnaporthe grisea (in words): strong inhibitory rate
  Average antifungal rate (%): 82.77%
  Antifungal rate of Magnaporthe grisea (%), Replicate 1: 81.29%
  Antifungal rate of Magnaporthe grisea (%), Replicate 2: 83.56%
  Antifungal rate of Magnaporthe grisea (%), Replicate 3: 83.45%
[2]; [6]
  Hatching rate (%): 17.98%
  Number of hatched larvae 5 days after insecticide delivery: 16
[2]; [7]
  Hatching rate (%): 17.92%
  Number of hatched larvae 5 days after insecticide delivery: 19
Eggs of Aleyrodidae; listed as 19-(R, R)
  Hatching rate (%), Replicate 1: 11.96%
  Hatching rate (%), Replicate 2: 10.20%
  Hatching rate (%), Replicate 3: 11.20%
  Number of hatched larvae 5 days after insecticide delivery, Replicate 1: 11
  Number of hatched larvae 5 days after insecticide delivery, Replicate 2: 10
  Number of hatched larvae 5 days after insecticide delivery, Replicate 3: 14
